Where two headings read alike, the source gives them in different places.

Drawing on patent US10227324B2 (Shanghai Haiyan Pharmaceutical Technology Co., Ltd., priority 2014, dated 2019), this text covers IC50 for ten molecules.

Experiment [1] has as its system Akt phosphorylation (Ser473-p-Akt) in PC-3 cells. Nature of the experiment: Inhibition of p-Akt phosphorylation level in PC-3 cells (cell level fluorescence imaging). The experiment is classed as cell-based. The note with it: Homo sapiens; Akt phosphorylation in PC-3 cells, 2 hours incubation; read-out: PC-3 cell (IC50/nM). Here is the method: This experiment was performed by cell level fluorescence image processing method.
Triton X-100: 10% aqueous Triton X-100 solution (Sigma T8787-100 mL) was prepared, stored at 4° C. and diluted by 1:100 to give 0.1% Triton X-100 aqueous solution for use in the experiment.
Prodium Iodide (PI): 1 mg/mL (1.5 mM) PI (Sigma P4170) storage solution was prepared with PBS and stored at −25° C. in the dark. For use, the PI storage solution was diluted with PBS by 1:1000 to give a 1.5 μM solution and used in dark.
PC-3 cells in logarithmic growth phase were digested with 0.25% EDTA trypsin. 3000 cells/90 μL were seeded in a 96-well plate (BD 356692) and cultured at 37° C. and 5% CO2. After the cells adhered, 10 μL of the compound to be tested which was gradiently diluted 3 times (0.0046 to 10 μM, 8 concentration points, in duplicate) was added and incubated for 2 hours, followed by addition of 100 μL of 4% paraformaldehyde (DINGGUO AR-0211) and incubated at room temperature for 45 minutes. Then 100 μL of 0.1% Triton X-100 solution was added and incubated for another 30 minutes.
Triton X-100 solution was removed and the cells were rinsed with 200 μl of PBS twice (300 rpm vibration for 1 minute). The blocking solution (1% BSA solution in PBS) (Genview FA016-100G) was added and incubated at room temperature for 2 hours. The plate was rinsed with PBS once (300 rpm, 1 min) and 30 μL of Ser473-p-Akt antibody (cell signaling 4060L) diluted with 0.1% BSA was added and incubated overnight at 4° C. Ser473-p-Akt antibody was removed and the plate was rinsed with PBS twice (300 rpm, 1 minute). 35 μL of Alexa Flour 488 donkey anti-rabbit IgG (Invitrogen A21206) was added and incubated at room temperature for 1.5 hours. The plate was rinsed with PBS twice (300 rpm, 1 minute) and 35 μL of 1.5 μM PI was added and incubated at room temperature for 0.5 h. The fluorescence intensity was measured with Acumen eX3 (TTP LabTech).
10 μM BEZ235 (Selleck S1009) treatment group was negative control and DMSO treatment group was positive control. Inhibition ratio %=[1−(the mean value of the fluorescence intensity of the compound to be tested−the mean value of the fluorescence intensity of the negative control group)/(the mean value of the fluorescence intensity of the positive control group−the mean value of the fluorescence intensity of the negative control group)]×100%

In the next experiment the test system is T47D cells. Nature of the experiment: Cell inhibitory activity detected by MTT assay, T47D. The class given is cell-based. Particulars: Homo sapiens, T47D, 72 h, read-out: T47D cell (IC50/nM), cell growth inhibition. Here is the method: (§1) The MTT assay procedure and steps were carried out as well known to those skilled in the art, and all the reagents used in the methods were commercially available. The cells in logarithmic growth phase were digested with 0.25% EDTA trypsin (Gibco, 25200-056) and resuspended in fresh medium. 90 μL of the cell suspension was inoculated into a 96-well cell culture plate (BD Faclon 353072) with a suitable cell density and cultured at 37° C. under 5% CO2. After the cells adhered, 10 μL of the test compound at different concentrations (0.0046-10 μM, 8 concentration points) was added and incubated for another 72 h. 10 μL of MTT (5 mg/mL PBS solution) (Sigma, M5655) was added to react for 4 h. The absorbance at 492 nm was measured by using Thermo Scientific Multiskan MK3 microplate reader and IC50 was calculated using XLFIT 5.0 software (UK IDBS). T47D cell culture medium: RPMI-1640 medium (Hyclone SH30809.01B)+10% FBS (Gibco 10099-141)
In general terms: Tetrazolium dyes change colour on reduction, which living cells bring about.

A further experiment has as its system MCF-7 cells. Nature of the experiment: Cell inhibitory activity detected by MTT assay, MCF-7. The class given is cell-based. Particulars: Homo sapiens, MCF7, 72 h, read-out: MCF-7 cell (IC50/nM), cell growth inhibition. The method, then: as §1, with “MCF-7” for “T47D”, “DMEM” for “RPMI-1640”, “SH30243.01B+10%” for “SH30809.01B)+10%”
For a further experiment, the system named is NIH3T3 cells. Nature of the experiment: Cytotoxicity by MTT assay, NIH3T3. The experiment is classed as cell-based. Particulars: Mus musculus, NIH3T3, 72 h, cytotoxicity class, read-out: NIH3T3 cell (IC50/nM). The method, then:
The MTT assay procedure and steps were carried out as well known to those skilled in the art, and all the reagents used in the methods were commercially available.
as §1, with “The” for “The MTT assay procedure and steps were carried out as well known to those skilled in the art, and all the reagents used in the methods were commercially available. The”, “IDBS).” for “IDBS). T47D cell culture medium: RPMI-1640 medium (Hyclone SH30809.01B)+10% FBS (Gibco 10099-141)”

Experiment [2] deals with T1, PI3K-α kinase (p110α/p85α) (Homo sapiens, UniProt P42336).
T1 construct: purchased Invitrogen PV4788
T1 sequence (P42336 whole entry): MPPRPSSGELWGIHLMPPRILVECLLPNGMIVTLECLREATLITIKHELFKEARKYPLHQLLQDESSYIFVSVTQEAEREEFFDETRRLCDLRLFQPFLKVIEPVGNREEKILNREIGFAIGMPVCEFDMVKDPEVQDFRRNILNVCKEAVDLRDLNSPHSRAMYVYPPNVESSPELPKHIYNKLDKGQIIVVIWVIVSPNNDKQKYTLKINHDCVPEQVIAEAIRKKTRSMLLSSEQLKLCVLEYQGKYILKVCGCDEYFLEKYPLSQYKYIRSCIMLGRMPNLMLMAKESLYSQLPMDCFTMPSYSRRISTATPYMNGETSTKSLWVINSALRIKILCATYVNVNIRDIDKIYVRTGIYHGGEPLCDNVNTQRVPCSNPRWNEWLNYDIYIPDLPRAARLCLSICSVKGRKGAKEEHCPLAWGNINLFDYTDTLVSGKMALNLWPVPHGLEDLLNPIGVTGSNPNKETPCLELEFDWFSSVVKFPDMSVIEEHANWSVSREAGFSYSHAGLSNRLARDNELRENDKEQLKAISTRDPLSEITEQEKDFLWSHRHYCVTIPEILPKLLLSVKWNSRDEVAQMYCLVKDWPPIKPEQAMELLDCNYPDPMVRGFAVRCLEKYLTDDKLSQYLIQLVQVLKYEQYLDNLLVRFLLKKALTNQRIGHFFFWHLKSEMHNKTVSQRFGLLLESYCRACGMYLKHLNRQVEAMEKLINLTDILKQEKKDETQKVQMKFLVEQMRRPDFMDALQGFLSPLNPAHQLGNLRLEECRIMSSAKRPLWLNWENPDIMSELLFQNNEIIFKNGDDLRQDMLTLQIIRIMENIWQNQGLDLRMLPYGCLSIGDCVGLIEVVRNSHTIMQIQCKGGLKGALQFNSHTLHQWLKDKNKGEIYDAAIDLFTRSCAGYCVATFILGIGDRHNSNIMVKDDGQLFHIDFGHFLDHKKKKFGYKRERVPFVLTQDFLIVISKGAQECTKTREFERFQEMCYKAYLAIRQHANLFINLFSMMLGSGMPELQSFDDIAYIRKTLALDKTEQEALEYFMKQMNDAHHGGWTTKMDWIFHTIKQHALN
T1 sequence (P27986 whole entry partner): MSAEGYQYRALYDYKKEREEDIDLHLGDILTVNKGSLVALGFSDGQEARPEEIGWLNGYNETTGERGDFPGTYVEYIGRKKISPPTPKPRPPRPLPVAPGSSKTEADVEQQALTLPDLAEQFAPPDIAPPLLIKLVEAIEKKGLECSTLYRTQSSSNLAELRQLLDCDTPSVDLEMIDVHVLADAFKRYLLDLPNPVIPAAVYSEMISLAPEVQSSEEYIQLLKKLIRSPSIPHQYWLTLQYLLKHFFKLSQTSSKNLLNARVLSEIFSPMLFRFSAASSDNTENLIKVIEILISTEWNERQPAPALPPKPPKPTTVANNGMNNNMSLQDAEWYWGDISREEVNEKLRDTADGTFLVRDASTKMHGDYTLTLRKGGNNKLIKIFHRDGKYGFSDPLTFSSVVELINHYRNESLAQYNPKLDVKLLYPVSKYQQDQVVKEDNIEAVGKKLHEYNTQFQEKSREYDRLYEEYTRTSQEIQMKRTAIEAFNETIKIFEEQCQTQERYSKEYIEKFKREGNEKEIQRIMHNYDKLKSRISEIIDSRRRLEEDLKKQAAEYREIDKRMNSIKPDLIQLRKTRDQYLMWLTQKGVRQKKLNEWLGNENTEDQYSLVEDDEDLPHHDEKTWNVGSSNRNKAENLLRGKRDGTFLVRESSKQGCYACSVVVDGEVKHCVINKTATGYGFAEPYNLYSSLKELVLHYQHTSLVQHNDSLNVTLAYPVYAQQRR
Nature of the experiment: Determination of PI3K kinase activity (ADP Transcreener, fluorescence polarization). The class given is biochemical. The note with it: ATP 10 μM. Here is the method:
(§2) The inhibition of PI3K kinase activity by the compound to be tested was determined by the following method. The working concentration of each component in the 25 μL enzyme reaction system was: p110α/p85α 3 ng (or p110β/p85α 60 ng, or p110δ/p85α 90 ng, or p110γ 100 ng), ATP 10 μM, PIP2: PS (Invitrogen PV5100) 30 μM and the DMSO concentration was 2% after addition of the compound to be tested.
(§3) At the time of the test, the compound to be tested was dissolved in dimethylsulfoxide (DMSO) according to the desired concentration of the experiment. The compound to be tested was gradiently diluted 3 times (0.00046-1 μM, 8 concentration points) with 10% DMSO. 5 μL of the compound to be tested was added to each well of a 96-well plate (Greiner 675076) in duplicate. […] 10 μL of ATP/PIP2: PS and 10 μL of the PI3K enzyme working solution were added to each well in a 96-well plate. The plate was shaken and mixed uniformly, and then incubated at 25° C. for 1 hour. At the same time, ADP and ATP (0.01 μM, 0.02 μM, 0.04 μM, 0.06 μM, 0.08 μM[…], 0.1 μM, 0.25 μM, 0.5 μM, 1 μM, 2 μM, 5 μM, 10 μM, 12 concentration points) were diluted with buffer to set the standard curve. After completion of the enzyme reaction, 25 μL of ADP assay solution (1% 100×ADP tracer, 0.79% ADP antibody and 10% 10× reaction stop solution) was added and incubated at 25° C. for 1 hour. Fluorescence polarization value [mP] of each well was measured with a Perkin Elmer Victor X5 Fluorescent Microplate. The ADP concentration [ADP] was calculated from the ADP/ATP standard curve and the IC50 values were calculated using the XLFit software.
(Polarisation of emitted light reports the rotation of a fluorescent probe.)

Experiment [3] addresses T2, PI3K-β kinase (p110β/p85α) (Homo sapiens, UniProt P42338).
T2 construct: purchased Millipore 14-603
Described as above. The experiment is classed as biochemical. The note with it: Table 1; ATP 10 μM; read-out: PI3K-β/nM (IC50 of inhibitory activity against PI3K kinase). The method, then: as §2, §3

Experiment [4] concerns the target T3, PI3K-δ kinase (p110δ/p85α) (Homo sapiens, UniProt O00329).
T3 construct: purchased Millipore 14-604M
The description is as above. The experiment is classed as biochemical. The note with it: Table 1; ATP 10 μM; read-out: PI3K-δ/nM (IC50 of inhibitory activity against PI3K kinase). Here is the method: as §2, §3

Another experiment concerns the target T4, PI3K-γ kinase (p110γ) (Homo sapiens, UniProt P48736).
T4 construct: purchased Invitrogen PV4786
The description is as above. Particulars: Table 1; ATP 10 μM; read-out: PI3K-γ/nM (IC50 of inhibitory activity against PI3K kinase). The class given is biochemical. Here is the method:
The PI3K kinase used in the experiment: p110α/p85α (Invitrogen PV4788), p110β/p85α (Millipore 14-603), p110δ/p85α (Millipore 14-604M), and p110γ (Invitrogen PV4786).
as §2
as §3, with “duplicate. 2.5× buffer was prepared and 1 μL of DTT (Millipore 20-265) was added to each 800 μL of 2.5× buffer.” for “duplicate.”

The mark [5] stands for this setting: Table 2, read-out: PI3K-α/nM (IC50 of inhibitory activity against PI3K-α kinase).
Setting [6] is: Table 1, read-out: PI3K-α/nM (IC50 of inhibitory activity against PI3K kinase).

T3 sequence (O00329 whole entry): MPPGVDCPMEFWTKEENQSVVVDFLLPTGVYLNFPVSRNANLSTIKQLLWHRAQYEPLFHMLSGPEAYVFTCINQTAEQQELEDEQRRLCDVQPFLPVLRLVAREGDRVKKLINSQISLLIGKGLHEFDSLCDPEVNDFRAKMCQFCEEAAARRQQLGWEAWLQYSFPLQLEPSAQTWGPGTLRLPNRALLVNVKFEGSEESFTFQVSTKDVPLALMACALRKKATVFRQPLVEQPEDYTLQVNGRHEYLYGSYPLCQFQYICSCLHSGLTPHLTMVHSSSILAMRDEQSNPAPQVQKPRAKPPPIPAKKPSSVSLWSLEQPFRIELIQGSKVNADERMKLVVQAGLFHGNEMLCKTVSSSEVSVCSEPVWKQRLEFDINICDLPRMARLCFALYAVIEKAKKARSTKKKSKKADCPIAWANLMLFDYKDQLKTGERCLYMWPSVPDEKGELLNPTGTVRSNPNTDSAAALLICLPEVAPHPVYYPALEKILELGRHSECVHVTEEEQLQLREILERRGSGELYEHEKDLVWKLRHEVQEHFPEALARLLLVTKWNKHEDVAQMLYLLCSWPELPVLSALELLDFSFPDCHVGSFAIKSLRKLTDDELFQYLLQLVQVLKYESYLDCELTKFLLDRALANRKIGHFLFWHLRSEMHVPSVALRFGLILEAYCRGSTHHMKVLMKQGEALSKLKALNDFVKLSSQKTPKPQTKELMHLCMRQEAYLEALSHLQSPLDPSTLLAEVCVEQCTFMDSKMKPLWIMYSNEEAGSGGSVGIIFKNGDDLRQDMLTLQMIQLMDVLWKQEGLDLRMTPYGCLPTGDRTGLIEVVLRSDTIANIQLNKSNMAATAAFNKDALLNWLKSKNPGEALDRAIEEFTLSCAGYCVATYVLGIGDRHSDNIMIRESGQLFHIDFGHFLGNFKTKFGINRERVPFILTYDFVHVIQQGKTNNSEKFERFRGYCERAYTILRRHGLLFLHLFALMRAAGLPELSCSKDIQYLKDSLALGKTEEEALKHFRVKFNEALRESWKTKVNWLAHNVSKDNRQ
T3 sequence (P27986 whole entry partner): as the sequence (P27986 whole entry partner) above
T4 sequence (P48736 whole entry): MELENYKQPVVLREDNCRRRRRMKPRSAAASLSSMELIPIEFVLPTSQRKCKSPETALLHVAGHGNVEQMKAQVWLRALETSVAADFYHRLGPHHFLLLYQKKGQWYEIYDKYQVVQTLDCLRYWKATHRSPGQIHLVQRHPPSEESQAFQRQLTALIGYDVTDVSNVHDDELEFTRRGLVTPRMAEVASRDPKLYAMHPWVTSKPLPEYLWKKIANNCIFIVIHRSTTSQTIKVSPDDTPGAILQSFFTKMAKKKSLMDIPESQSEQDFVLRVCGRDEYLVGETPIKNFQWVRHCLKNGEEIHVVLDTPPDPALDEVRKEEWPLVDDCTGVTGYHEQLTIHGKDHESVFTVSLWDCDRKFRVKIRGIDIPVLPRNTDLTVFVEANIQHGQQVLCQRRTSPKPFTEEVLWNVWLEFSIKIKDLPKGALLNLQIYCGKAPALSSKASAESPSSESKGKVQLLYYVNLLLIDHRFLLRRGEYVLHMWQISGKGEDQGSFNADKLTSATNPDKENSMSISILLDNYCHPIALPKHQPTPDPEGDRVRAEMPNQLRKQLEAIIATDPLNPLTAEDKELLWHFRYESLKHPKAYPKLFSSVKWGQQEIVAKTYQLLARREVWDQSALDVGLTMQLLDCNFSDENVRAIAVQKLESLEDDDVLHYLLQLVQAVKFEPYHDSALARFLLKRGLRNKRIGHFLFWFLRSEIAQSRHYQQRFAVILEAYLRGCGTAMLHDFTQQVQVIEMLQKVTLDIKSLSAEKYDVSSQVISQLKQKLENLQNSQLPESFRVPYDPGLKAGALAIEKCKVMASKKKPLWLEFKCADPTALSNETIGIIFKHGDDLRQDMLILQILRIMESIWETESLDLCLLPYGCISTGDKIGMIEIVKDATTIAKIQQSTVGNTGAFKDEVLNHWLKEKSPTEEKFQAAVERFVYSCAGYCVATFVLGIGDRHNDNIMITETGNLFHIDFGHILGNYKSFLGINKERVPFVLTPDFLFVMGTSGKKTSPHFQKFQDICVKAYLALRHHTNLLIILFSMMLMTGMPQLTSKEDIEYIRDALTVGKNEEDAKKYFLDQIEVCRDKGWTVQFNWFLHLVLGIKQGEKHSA
T2 sequence (P42338 whole entry): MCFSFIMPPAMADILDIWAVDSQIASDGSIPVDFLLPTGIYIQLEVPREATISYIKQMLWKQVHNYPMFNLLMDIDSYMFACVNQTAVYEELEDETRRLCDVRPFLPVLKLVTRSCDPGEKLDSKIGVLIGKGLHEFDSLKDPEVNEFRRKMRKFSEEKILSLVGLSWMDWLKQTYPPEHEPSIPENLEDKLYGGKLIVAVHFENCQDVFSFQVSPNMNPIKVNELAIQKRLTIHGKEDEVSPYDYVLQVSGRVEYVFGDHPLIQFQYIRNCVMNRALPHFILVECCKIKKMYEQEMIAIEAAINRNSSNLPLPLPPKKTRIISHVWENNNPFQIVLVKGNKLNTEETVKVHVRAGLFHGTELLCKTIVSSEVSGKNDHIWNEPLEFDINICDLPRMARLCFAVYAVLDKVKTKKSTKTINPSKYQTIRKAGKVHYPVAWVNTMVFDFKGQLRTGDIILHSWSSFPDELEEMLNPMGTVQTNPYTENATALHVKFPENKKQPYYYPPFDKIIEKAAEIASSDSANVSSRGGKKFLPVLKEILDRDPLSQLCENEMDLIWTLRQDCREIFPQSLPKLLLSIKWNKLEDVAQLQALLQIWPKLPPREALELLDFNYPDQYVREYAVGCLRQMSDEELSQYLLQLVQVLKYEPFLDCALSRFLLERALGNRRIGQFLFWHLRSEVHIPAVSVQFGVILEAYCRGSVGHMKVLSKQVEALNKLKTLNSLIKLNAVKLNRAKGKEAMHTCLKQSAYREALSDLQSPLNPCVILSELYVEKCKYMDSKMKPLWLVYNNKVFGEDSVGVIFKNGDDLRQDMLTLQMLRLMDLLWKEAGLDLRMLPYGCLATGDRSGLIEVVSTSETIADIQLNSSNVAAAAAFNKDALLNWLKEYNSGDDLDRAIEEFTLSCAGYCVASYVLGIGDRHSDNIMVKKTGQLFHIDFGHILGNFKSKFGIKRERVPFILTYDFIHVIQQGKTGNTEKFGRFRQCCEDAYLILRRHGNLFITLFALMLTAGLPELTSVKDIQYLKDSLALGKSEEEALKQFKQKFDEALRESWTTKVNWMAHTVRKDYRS
T2 sequence (P27986 whole entry partner): as the sequence (P27986 whole entry partner) above

For `Nc1cc(C(F)(F)F)c(-c2cc(N3CCOCC3)nc(N3CCOCC3)n2)cn1` [BKM-120, reference compound], the IC50 in experiment [1] was 596 nM.

As to `CS(=O)(=O)C1(c2cc(-c3cnc(N)cc3C(F)(F)F)nc(N3CCOCC3)c2)CC1` [Comparative compound 1, 4-(1-(methylsulfonyl)cyclopropyl)-6-morpholino-4′-(trifluoromethyl)-2,3′bipyridyl-6′-amine, reference compound], the IC50 in experiment [1] is 2260 nM; with T47D cells it was 1220 nM; in the experiment on MCF-7 cells, 996 nM.

For the molecule `C[C@@H]1COCCN1c1nc(-c2cnc(N)cc2C(F)(F)F)cc(C2(S(C)(=O)=O)CC2)n1` [Compound S-5], the IC50 in the experiment with NIH3T3 cells is 1000 to 3000 nM.

In the case of `Nc1cc(C(F)(F)F)c(-c2cc(C3(C(=O)N4CCCCC4)CC3)nc(N3CCOCC3)n2)cn1` [Compound S-7], the IC50 in the experiment on NIH3T3 cells is greater than 10000 nM.

For the molecule `CC(C)(c1cc(-c2ccc(N)nc2)nc(N2CCOCC2)n1)S(C)(=O)=O` [Compound S-39], the figures for the IC50 (in experiment [1]; in the experiment with MCF-7 cells) were 513 nM and 441 nM, respectively.

As for `CS(=O)(=O)C1(c2cc(-c3ccc(N)nc3)nc(N3CCOCC3)n2)CC1` [Compound S-40], the IC50 in experiment [2] (setting [5]) stood at 92 nM; in experiment [1] it was 465 nM; with MCF-7 cells it was 355 nM.

For `CC(C)(O)c1cc(-c2cnc(N)cc2Cl)nc(N2CCOCC2)n1` [Compound S-63], the IC50 in experiment [2] (setting [6]) is 21 nM; in experiment [3], 228 nM; in experiment [4], 158 nM; on PI3K-γ kinase (p110γ) it was 428 nM; in experiment [1], 577 nM; with MCF-7 cells, 240 nM.

Consider `CC(C)(O)c1cc(-c2cnc(N)nc2C(F)(F)F)nc(N2CCOCC2)n1` [Compound S-64], for which the IC50 in experiment [2] (setting [6]) is 13 nM; in experiment [3], 27 nM; in experiment [4], 19 nM; on PI3K-γ kinase (p110γ), 431 nM; in experiment [1] it was 330 nM.

As for `Nc1cc(C(F)(F)F)c(-c2cc(C3(S(=O)(=O)c4ccccc4Cl)CC3)nc(N3CCOCC3)n2)cn1` [Compound S-78], the IC50 in experiment [2] (setting [6]) is 7 nM; in experiment [2] (setting [5]) it was 7 nM; in experiment [3] it was 419 nM; in experiment [4], 85 nM; on PI3K-γ kinase (p110γ), 925 nM; in the experiment on T47D cells, 206 nM. Moreover, in the experiment on MCF-7 cells, the IC50 was 318 nM.

For the molecule `Nc1cc(Cl)c(-c2cc(C3(S(=O)(=O)C4CC4)CC3)nc(N3CCOCC3)n2)cn1` [Compound S-87], the IC50 in experiment [2] (setting [6]) was determined as 14 nM; in experiment [2] (setting [5]) it was 14 nM; in experiment [3] it was 386 nM; in experiment [4] it was 117 nM; at PI3K-γ kinase (p110γ) it was 134 nM; with T47D cells, 101 nM. Also, in the experiment on MCF-7 cells, the IC50 stood at 170 nM.
